In patent publication EP4534610A1, “FLUOROPHORE COMPOUNDS AND PRODUCTION THEREOF” (Université Fribourg, priority 2023, dated 2025):
Values joined by “and” are separate entries in the source; they are usually repeats but may differ in a detail not shown here. Equal values may be shown once.

Experiments:
[1] = Photoluminescence emission spectra in different solvents; type: physicochemical
Description: The photo-physical properties of these dye molecules with stilbene-like motifs were investigated in different solvents in order to determine their maximum absorption and emission wavelengths (Figures 6A to 6C). The compounds were dissolved in Acetonitrile (CH3CN), chloroform (CHCl3), c-hexane (c-HEX), dichloromethane (DCM), dimethylformamide (DMF), methanol (MeOH), tetrahydrofuran (THF), and toluene (Tol).
The highest emission intensity was detected when THF and c-Hex were used as solvents, with lesser intensity recorded for DMF and Tol. PyPe emits light in the blue range, with emission peaks between 380nm and 550nm. Absolute intensities of up to 3.5 x 10^6 were recorded for PyPe in c-Hex.
The photoluminescence spectra of PyPeBr upon excitation at 440nm when dissolved in CH3CN, CHCl3, DCM, DMF, MeOH, or Tol, and upon excitation at 370 nm when dissolved in c-Hex or THF is shown in Figure 4B. PyPeBr has a relatively broad emission spectrum, which depends on the solvent used. The emission spectrum of PyPeBr can be as broad to cover most of the visible range. This broad emission range offers the possibility to select a desired wavelength for imaging by applying appropriate filters.
PyPh emits light in the blue range, ranging from 400nm to 500nm. […] The loss in stability is due to the self-photobleaching reactions, which are induced by irradiation.
(§1) ^1H-NMR was recorded on 400 MHz (Brucker DRX 400) and ^13C-NMR spectra were recorded on Bruker 100 MHz spectrometer at room temperature with d6-DMSO as a solvent and tetramethylsilane (TMS) as the internal standard. Mass spectra were performed on the Bruker-ION Trap Ms. Fluorescence spectra were measured on an Edinburgh Instruments FS5 Spectrofluorometer. Absorption spectra were determined on a Perkin Elmer UV/VIS Lambda 2 (190-1100 nm) spectrophotometer. IR spectra were recorded on a Perking Elmer FT-IR spectrometer Frontier 4000-400 cm^-1. Single crystal structures were obtained from a STOE-IPDS II (Single crystal diffractometer λ-Mo), solved and refined using SHELXT software package.

[2] = Photostability: UV-visible spectra of 5µM solutions after continuous irradiation with 400 nm light (Xenon-arc lamp, 300 Watt); type: physicochemical; details: for stability of the absorbance under irradiation: up to 24h
Description: To examine the stability of the absorbance of PyPeBr and PyPe, 5µM solution (2.5 mL) of the respective compounds were prepared using different solvents. The compounds were then irradiated with 400nm using a Xenon-arc lamp at 300 Watt (25 nm FWHM). Following predefined irradiation periods, indicated in Figures 6A to 6H, UV-visible spectra were collected to monitor the stability of PyPeBr and PyPe in different solvents.

HEK/OVA-B16 cells = assay: Staining and fluorescence imaging of living cells; type: cell-based; details: for staining pattern in cells: HEK/OVA-B16 cells; for uptake by living cells: dyes applied for up to 1 hour at 10µM; for fluorescence emission spectrum in situ, peak: excited at 405 nm
[3] = Optical properties in different solvents: emission and absorption maxima, lifetime, quantum yield; type: physicochemical; details: for Lifetime, τavr.: multiexponential lifetime represented with τavr.; for Φf: quantum yield determined using integrating sphere
Description: as §1

[4] = system: melanoma OVA-B16 cells line; assay: MTT cytotoxicity assay; type: cell-based
Description: To this end, cytotoxicity tests using the MTT assay, a standard colorimetric assay for assessing cell metabolic activity known to the person skilled in the art, on melanoma OVA-B16 cells line were performed. […] Cell growth of OVA-16 cells was unaffected after 1h and 24h of exposure of PyPeBr at this concentration.

[5] = Light-induced E/Z isomerisation and photostationary state (X-ray of Zn complex, NMR, UV-Vis); type: physicochemical; details: similar irradiation conditions, NMR and UV-visible experiments
Source text: Evidence of the efficient photostationary state of PyPe, was provided by exposing a coordination metal complex of E-PyPe with Zn^2+, [Zn(E-PyPe)2Cl2]·2DCM, comprising two PyPe. X-Ray analysis confirmed that prior to irradiation both PyPe in the complex were primarily in E-configuration when coordinated to the Zn^2+ metal centre.
This experiment provided evidence that the light-induced E/Z-configurational change in PyPe reaches a photostationary equilibrium of E/Z-PyPe.
This was achieved by reacting allyl bromide at 40 °C in Acetonitril (MeCN) as described below to produce PyPeBr.

Compound: C(=C\c1ccc2ccc3cccc4ccc1c2c34)/c1ccncc1 [PyPe, (E)-4-(2-(pyren-1-yl)vinyl)pyridine, reference compound]
- absolute emission intensities ([1]; in c-Hex, excitation at 370nm): up to 3.5 x 10^6
- stability of the absorbance under irradiation ([2]; 5µM in DCM): an early bleaching effect could be detected within the first 15 minutes of irradiation
- stability of the absorbance under irradiation ([2]; 5µM in MeOH): an early bleaching effect could be detected within the first 15 minutes of irradiation
- morphological signs of cell toxicity (HEK/OVA-B16 cells; 10µM): No morphological signs of cell toxicity
- staining pattern in cells (HEK/OVA-B16 cells): cytosolic staining and subcellular partitioning
- uptake by living cells (HEK/OVA-B16 cells): readily taken up
- fluorescence emission spectrum in situ, peak (HEK/OVA-B16 cells): 465 nm
- Knr ([3]; solvent CH3CN): 0.38 10^8 s^-1
- kr ([3]; solvent CH3CN): 4.44 10^8 s^-1
- Lifetime, τavr. ([3]; solvent CH3CN): 2.07 ns
- Φf ([3]; solvent CH3CN): 0.92
- λ^em max ([3]; solvent CH3CN, λex = 405 nm): 616 nm
- Knr ([3]; solvent CHCl3): 0.66 10^8 s^-1
- kr ([3]; solvent CHCl3): 5.44 10^8 s^-1
- Lifetime, τavr. ([3]; solvent CHCl3): 1.65 ns
- Φf ([3]; solvent CHCl3): 0.89
- λ^em max ([3]; solvent CHCl3, λex = 405 nm): 607 nm
- Knr ([3]; solvent DCM): 2.38 10^8 s^-1
- kr ([3]; solvent DCM): 3.43 10^8 s^-1
- Lifetime, τavr. ([3]; solvent DCM): 1.72 ns
- Φf ([3]; solvent DCM): 0.59
- λ^em max ([3]; solvent DCM, λex = 405 nm): 623 nm
- Knr ([3]; solvent DMF): 0.26 10^8 s^-1
- kr ([3]; solvent DMF): 2.60 10^8 s^-1
- Lifetime, τavr. ([3]; solvent DMF): 3.5 ns
- Φf ([3]; solvent DMF): 0.91
- Knr ([3]; solvent MeOH): 0.65 10^8 s^-1
- kr ([3]; solvent MeOH): 3.19 10^8 s^-1
- Lifetime, τavr. ([3]; solvent MeOH): 2.6 ns
- Φf ([3]; solvent MeOH): 0.83
- λ^em max ([3]; solvent MeOH, λex = 405 nm): 611 nm
- Knr ([3]; solvent THF): 2.17 10^8 s^-1
- kr ([3]; solvent THF): 2.26 10^8 s^-1
- Lifetime, τavr. ([3]; solvent THF): 2.26 ns
- Φf ([3]; solvent THF): 0.51
- λ^em max ([3]; solvent THF, λex = 405 nm): 613 nm
- Knr ([3]; solvent Toluene): 0.53 10^8 s^-1
- kr ([3]; solvent Toluene): 3.91 10^8 s^-1
- Lifetime, τavr. ([3]; solvent Toluene): 2.25 ns
- Φf ([3]; solvent Toluene): 0.88
- λ^em max ([3]; solvent Toluene, λex = 405 nm): 603 nm
- Knr ([3]; solvent c-Hex): 0.47 10^8 s^-1
- kr ([3]; solvent c-Hex): 0.84 10^8 s^-1
- Lifetime, τavr. ([3]; solvent c-Hex): 7.58 ns
- Φf ([3]; solvent c-Hex): 0.64

Compound: C=CC[n+]1ccc(/C=C/c2ccc3ccc4cccc5ccc2c3c45)cc1.[Br-] [PyPeBr, (E)-1-allyl-4-(2-(pyren-1-yl)vinyl)pyridinium bromide]
- highest emission intensity ([1]; dissolved in DMF, excitation at 440nm): over 8.5 x 10^6
- emission peaks ([1]; very broad emission range, listed as General Formula P1.1): 405 nm and 465 nm and 565 nm
- stability of the absorbance under irradiation ([2]; 5µM in MeOH): only a minor decrease in absorbance after 15 minutes of irradiation but no further significant increase over a 24h irradiation period
- capacity to absorb light ranging from 370 nm to 500 nm under irradiation ([2]; 5µM in ultra-pure water (MilliQ purification), 24h): remained substantially unchanged over a 24h irradiation period
- solubility in water (Solubility): highly soluble in water
- deterioration in cell activity ([4]; 50 µM in cell buffered water or water/buffer/DMSO mixtures): minor or non-visible signs of deterioration in cell activity
- cell growth ([4]; 50 µM, after 1h and 24h of exposure): unaffected
- morphological signs of cell toxicity (HEK/OVA-B16 cells; 10µM): cytosol structure changes were observed
- morphological signs of cell toxicity (HEK/OVA-B16 cells; 50µM): cells became round and started to detach
- staining pattern in cells (HEK/OVA-B16 cells): stained the cytoplasm
- uptake by living cells (HEK/OVA-B16 cells): readily taken up
- fluorescence emission spectrum in situ, peak (HEK/OVA-B16 cells): 565 nm
- rate of E/Z-isomerization [5]: substantially faster than in PyPe
- Knr ([3]; solvent CH3CN): 3.15 10^8 s^-1
- kr ([3]; solvent CH3CN): 1.05 10^8 s^-1
- λ^em max ([3]; solvent CH3CN, Table 2, excitation not given): 621 nm
- Lifetime, τavr. ([3]; solvent CH3CN): 2.38 ns
- Φf ([3]; solvent CH3CN): 0.25
- Knr ([3]; solvent CHCl3): 0.06 10^8 s^-1
- kr ([3]; solvent CHCl3): 6.27 10^8 s^-1
- λ^em max ([3]; solvent CHCl3, Table 2, excitation not given): 609 nm
- Lifetime, τavr. ([3]; solvent CHCl3): 1.58 ns
- Φf ([3]; solvent CHCl3): 0.99
- Knr ([3]; solvent DCM): 1.87 10^8 s^-1
- kr ([3]; solvent DCM): 0.36 10^8 s^-1
- λ^abs max ([3]; solvent DCM): 492 nm
- λ^em max ([3]; solvent DCM, Table 2, excitation not given): 622 nm
- Lifetime, τavr. ([3]; solvent DCM): 4.5 ns
- Φf ([3]; solvent DCM): 0.16
- Knr ([3]; solvent DMF): 1.79 10^8 s^-1
- kr ([3]; solvent DMF): 2.18 10^8 s^-1
- Lifetime, τavr. ([3]; solvent DMF): 2.52 ns
- Φf ([3]; solvent DMF): 0.55
- Knr ([3]; solvent MeOH): 1.33 10^8 s^-1
- kr ([3]; solvent MeOH): 3.79 10^8 s^-1
- λ^em max ([3]; solvent MeOH, Table 2, excitation not given): 614 nm
- Lifetime, τavr. ([3]; solvent MeOH): 1.95 ns
- Φf ([3]; solvent MeOH): 0.74
- Knr ([3]; solvent THF): 3.08 10^8 s^-1
- kr ([3]; solvent THF): 0.06 10^8 s^-1
- λ^abs max ([3]; solvent THF): 447 nm
- λ^em max ([3]; solvent THF, Table 2, excitation not given): 617 nm
- Lifetime, τavr. ([3]; solvent THF): 3.18 ns
- Φf ([3]; solvent THF): 0.02
- Knr ([3]; solvent Toluene): 4.21 10^8 s^-1
- kr ([3]; solvent Toluene): 0.04 10^8 s^-1
- λ^abs max ([3]; solvent Toluene): 455 nm
- λ^em max ([3]; solvent Toluene, Table 2, excitation not given): 606 nm
- Lifetime, τavr. ([3]; solvent Toluene): 2.35 ns
- Φf ([3]; solvent Toluene): 0.01
- Knr ([3]; solvent c-Hex): 4.69 10^8 s^-1
- kr ([3]; solvent c-Hex): 0.10 10^8 s^-1
- λ^abs max ([3]; solvent c-Hex): 370 nm
- Lifetime, τavr. ([3]; solvent c-Hex): 2.09 ns
- Φf ([3]; solvent c-Hex): 0.02

Compound: C(=C\c1ccc2ccc3cccc4ccc1c2c34)/c1ccccc1 [PyPh, (E)-1-styrylpyrene]
- highest emission intensity, factor less than optimal emission intensities of PyPeBr ([1]; excitation at 370nm): ~1000
- stability of the absorbance under irradiation ([2]; 5µM in DCM): Comparable results
- stability of the absorbance under irradiation ([2]; 5µM in MeCN): gradually decreases over a 24h irradiation period, with a significant drop detected as early as after 15 mins of irradiation
- stability of the absorbance under irradiation ([2]; 5µM in MeOH): gradually decreases over a 24h irradiation period, with a significant drop detected as early as after 15 mins of irradiation
- morphological signs of cell toxicity (HEK/OVA-B16 cells; 10µM): No morphological signs of cell toxicity
- uptake by living cells (HEK/OVA-B16 cells): readily taken up
- fluorescence emission spectrum in situ, peak (HEK/OVA-B16 cells): 450 nm

Compound: Cascade Blue
- irradiation time to complete photobleaching ([2]; 5µM in ultra-pure water (Milli Q purification)): ≤ 8 h
